Laboratory results published in US20160244437A1, “SUBSTITUTED PHENYLALANINE DERIVATIVES” (BAYER PHARMA AKTIENGESELLSCHAFT, priority 2013, published 2016).
Where a name gives a salt, the structure may show the parent alone.

Tests used:
human and animal plasma = experiment: Determination of anticoagulatory activity: activated partial thromboplastin time (aPTT) in plasma; settings: concentration of test substance which brings about a 1.5-fold extension of the aPTT; plasma in vitro, C.K. Prest kit
Method: The anticoagulatory activity of the test substances is determined in vitro in human and animal plasma (for example mouse, rat, rabbit, pig and dog plasma). To this end, blood is drawn off in a mixing ratio of sodium citrate/blood of 1:9 using a 0.11 molar sodium citrate solution as receiver. Immediately after the blood has been drawn off, it is mixed thoroughly and centrifuged at about 4000 g for 15 minutes. The supernatant is pipetted off.
The activated partial thromboplastin time (aPTT) is determined in the presence of varying concentrations of test substance or the corresponding solvent using a commercial test kit (C.K. Prest from Diagnostica Stago). The test compounds are incubated with the plasma and the PTT reagent (cephalin, kaolin) at 37° C. for 3 minutes. Coagulation is then started by addition of a 25 mM aqueous calcium chloride solution, and the time when coagulation occurs is determined. The concentration of test substance which brings about a 1.5-fold extension of the aPTT is determined.

human factor XIa = biological target: T1, human factor XIa (Homo sapiens, UniProt P03951); experiment: Measurement of FXIa inhibition (fluorogenic peptide substrate Boc-Glu(OBzl)-Ala-Arg-AMC); format: biochemical; settings: factor XIa from Kordia 0.45 nM, 15 min pre-incubation, 30 min at 22° C., fluorescence
T1 construct: purchased Kordia
Method: The factor XIa inhibition of the substances according to the invention is determined using a biochemical test system which utilizes the reaction of a peptidic factor XIa substrate to determine the enzymatic activity of human factor XIa. Here, factor XIa cleaves from the peptic factor XIa substrate the C-terminal aminomethylcoumarin (AMC), the fluorescence of which is measured. The determinations are carried out in microtitre plates.
Test substances are dissolved in dimethyl sulphoxide and serially diluted in dimethyl sulphoxide (3000 μM to 0.0078 μM; resulting final concentrations in the test: 50 μM to 0.00013 μM). In each case 1 μl of the diluted substance solutions is placed into the wells of white microtitre plates from Greiner (384 wells). Subsequently, the following are added successively: 20 μl of assay buffer (50 mmol/l Tris buffer pH 7.4; 100 mmol/l sodium chloride; 5 mmol/l calcium chloride; 0.1% bovine serum albumin) and 20 μl of factor XIa from Kordia (0.45 nM in assay buffer). After 15 min of incubation, the enzyme reaction is started by addition of 20 μl of the factor XIa substrate Boc-Glu(OBzl)-Ala-Arg-AMC dissolved in assay buffer (10 μM in assay buffer) from Bachem, the mixture is incubated at room temperature (22° C.) for 30 min and fluorescence is then measured (excitation: 360 nm, emission: 460 nm). The measured emissions of the test batches with test substance are compared to those of control batches without test substance (only dimethyl sulphoxide instead of test substance in dimethyl sulphoxide), and IC50 values are calculated from the concentration/activity relationships.

T1 sequence (P03951 388-625 limits assumed): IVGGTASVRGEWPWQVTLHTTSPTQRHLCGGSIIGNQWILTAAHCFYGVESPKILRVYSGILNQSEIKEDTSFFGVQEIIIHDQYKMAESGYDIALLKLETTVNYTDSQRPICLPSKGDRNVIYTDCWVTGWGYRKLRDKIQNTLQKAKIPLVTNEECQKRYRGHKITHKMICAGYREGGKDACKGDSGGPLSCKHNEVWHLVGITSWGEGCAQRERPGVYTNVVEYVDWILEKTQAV
T1 sequence (P03951 19-387 partner limits assumed): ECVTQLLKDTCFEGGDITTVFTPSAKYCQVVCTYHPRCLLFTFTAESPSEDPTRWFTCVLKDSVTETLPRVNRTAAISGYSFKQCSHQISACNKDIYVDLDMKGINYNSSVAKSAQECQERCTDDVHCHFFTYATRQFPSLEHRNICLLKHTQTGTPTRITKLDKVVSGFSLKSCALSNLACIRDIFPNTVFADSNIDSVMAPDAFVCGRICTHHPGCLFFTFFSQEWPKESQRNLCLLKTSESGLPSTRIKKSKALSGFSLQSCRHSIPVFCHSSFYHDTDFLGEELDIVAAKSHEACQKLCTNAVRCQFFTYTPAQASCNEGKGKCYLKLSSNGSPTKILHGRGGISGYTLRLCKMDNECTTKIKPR

SMILES	aPTT (human and animal plasma) [µmol/L]	IC50 (human factor XIa) [nM]
CN(C)c1ncc(-c2cccc(C[C@H](NC(=O)[C@H]3CC[C@H](CN)CC3)C(=O)Nc3ccc(-c4nnn[nH]4)cc3)c2)c(OCc2ccccc2)n1 [Example 78, N-alpha-{[trans-4-(Aminomethyl)cyclohexyl]carbonyl}-3-[4-(benzyloxy)-2-(dimethylamino)pyrimidin-5-yl]-N-[4-(1H-tetrazol-5-yl)phenyl]-L-phenylalaninamide hydrochloride]	0.19	2.3
NC[C@H]1CC[C@H](C(=O)N[C@@H](Cc2cccc(-c3cnc(N4CCNCC4)nc3)c2)C(=O)Nc2ccc3[nH]c(=O)[nH]c3c2)CC1 [Example 67, N-alpha-{[trans-4-(Aminomethyl)cyclohexyl]carbonyl}-N-(2-oxo-2,3-dihydro-1H-benzimidazol-5-yl)-3-[2-(piperazin-1-yl)pyrimidin-5-yl]-L-phenylalaninamide hydrochloride]	0.15	37
Cc1ccc(S(=O)(=O)N2CCCC2)cc1-c1cccc(C[C@H](NC(=O)[C@H]2CC[C@H](CN)CC2)C(=O)Nc2ccc3[nH]c(=O)[nH]c3c2)c1 [Example 11, trans-4-(Aminomethyl)-N-{(2S)-3-[2′-methyl-5′-(pyrrolidin-1-ylsulphonyl)biphenyl-3-yl]-1-oxo-1-[(2-oxo-2,3-dihydro-1H-benzimidazol-5-yl)amino]propan-2-yl}cyclohexanecarboxamide hydrochloride]	0.3	7.9
Cc1ccc(S(=O)(=O)NCc2ccccc2)cc1-c1cccc(C[C@H](NC(=O)[C@H]2CC[C@H](CN)CC2)C(=O)Nc2ccc(-c3noc(=O)[nH]3)cc2)c1 [Example 60, trans-4-(Aminomethyl)-N-[(2S)-3-[5′-(benzylsulphamoyl)-2′-methylbiphenyl-3-yl]-1-oxo-1-{[4-(5-oxo-4,5-dihydro-1,2,4-oxadiazol-3-yl)phenyl]amino}propan-2-yl]cyclohexanecarboxamide hydrochloride]	0.21	1.4
CN(C)CCCOc1ccc(-c2cccc(C[C@H](NC(=O)[C@H]3CC[C@H](CN)CC3)C(=O)Nc3ccc(-c4nc(C(F)(F)C(F)(F)C(F)(F)C(=O)O)n[nH]4)cc3)c2)cn1 [Example 108, 4-(5-{4-[(N-{[trans-4-(Aminomethyl)cyclohexyl]carbonyl}-3-{6-[3-(dimethylamino)propoxy]pyridin-3-yl}-L-phenylalanyl)amino]phenyl}-1H-1,2,4-triazol-3-yl)-2,2,3,3,4,4-hexafluorobutanoic acid hydrochloride]	0.25	5.5
NC[C@H]1CC[C@H](C(=O)N[C@@H](Cc2cccc(-c3cnc(N)nc3)c2)C(=O)Nc2ccc(-c3nnn[nH]3)cc2)CC1 [Example 79, N-alpha-{[trans-4-(Aminomethyl)cyclohexyl]carbonyl}-3-(2-aminopyrimidin-5-yl)-N-[4-(1H-tetrazol-5-yl)phenyl]-L-phenylalaninamide hydrochloride]	0.14	2.3
Cc1ccc(C(=O)NC2C3CNCC32)cc1-c1cccc(C[C@H](NC(=O)C2CCC(CN)CC2)C(=O)Nc2ccc(-c3nnn[nH]3)cc2)c1 (stereo partly drawn) [Example 16, 3′-[(2S)-2-({[trans-4-(Aminomethyl)cyclohexyl]carbonyl}amino)-3-oxo-3-{[4-(1H-tetrazol-5-yl)phenyl]amino}propyl]-N-(3-azabicyclo[3.1.0]hex-6-yl)-6-methylbiphenyl-3-carboxamide hydrochloride]	0.25	5.5
COCc1nnc(-c2ccc(NC(=O)[C@H](Cc3cccc(-c4cccc5ncccc45)c3)NC(=O)[C@H]3CC[C@H](CN)CC3)cc2)[nH]1 [Example 105, N-alpha-{[trans-4-(Aminomethyl)cyclohexyl]carbonyl}-3-quinolin-5-yl-N-{4-[5-(methoxymethyl)-4H-1,2,4-triazol-3-yl]phenyl}-L-phenylalaninamide hydrochloride]	0.14	13
Cc1ccc(C(=O)NCCOCCOCCO)cc1-c1cccc(C[C@H](NC(=O)[C@H]2CC[C@H](CN)CC2)C(=O)Nc2ccc(-c3nnn[nH]3)cc2)c1 [Example 21, 3′-[(2S)-2-({[trans-4-(Aminomethyl)cyclohexyl]carbonyl}amino)-3-oxo-3-{[4-(1H-tetrazol-5-yl)phenyl]amino}propyl]-N-{2-[2-(2-hydroxyethoxy)ethoxy]ethyl}-6-methylbiphenyl-3-carboxamide hydrochloride]	0.19	2.3
CN1CCN(C(=O)c2ccc(-c3cccc(C[C@H](NC(=O)[C@H]4CC[C@H](CN)CC4)C(=O)Nc4ccc(-c5nnn[nH]5)cc4)c3)cc2)CC1 [Example 46, trans-4-(Aminomethyl)-N-[(2S)-3-{4′-[(4-methylpiperazin-1-yl)carbonyl]biphenyl-3-yl}-1-oxo-1-{[4-(1H-tetrazol-5-yl)phenyl]amino}propan-2-yl]cyclohexanecarboxamide hydrochloride]	0.32	7.9
CNC(=O)c1ccc(F)c(-c2cccc(C[C@H](NC(=O)[C@H]3CC[C@H](CN)CC3)C(=O)Nc3ccc(-c4nnn[nH]4)cc3)c2)c1 [Example 62, 3′-[(2S)-2-({[trans-4-(Aminomethyl)cyclohexyl]carbonyl}amino)-3-oxo-3-{[4-(1H-tetrazol-5-yl)phenyl]amino}propyl]-6-fluoro-N-methylbiphenyl-3-carboxamide hydrochloride]	0.48	6.2
CC(=O)Nc1ccc(Cl)c(-c2cccc(C[C@H](NC(=O)[C@H]3CC[C@H](CN)CC3)C(=O)Nc3ccc(-c4nnn[nH]4)cc3)c2)c1 [Example 86, trans-N-[(2S)-3-[5′-(Acetylamino)-2′-chlorobiphenyl-3-yl]-1-oxo-1-{[4-(1H-tetrazol-5-yl)phenyl]amino}propan-2-yl]-4-(aminomethyl)cyclohexanecarboxamide hydrochloride]	0.24	2.5
CCN(CC)CCNC(=O)c1cccc(-c2cccc(C[C@H](NC(=O)[C@H]3CC[C@H](CN)CC3)C(=O)Nc3ccc(-c4nnc(Cl)[nH]4)cc3)c2)c1 [Example 40, 3′-[(2S)-2-({[trans-4-(Aminomethyl)cyclohexyl]carbonyl}amino)-3-{[4-(3-chloro-4H-1,2,4-triazol-5-yl)phenyl]amino}-3-oxopropyl]-N-[2-(diethylamino)ethyl]biphenyl-3-carboxamide hydrochloride]	0.19	8.3
NC[C@H]1CC[C@H](C(=O)N[C@@H](Cc2cccc(-c3ccc(C(=O)NCCN4CCCC4)cc3)c2)C(=O)Nc2ccc(-c3nnn[nH]3)cc2)CC1 [Example 41, 3′-[(2S)-2-({[trans-4-(Aminomethyl)cyclohexyl]carbonyl}amino)-3-oxo-3-{[4-(1H-tetrazol-5-yl)phenyl]amino}propyl]-N-[2-(pyrrolidin-1-yl)ethyl]biphenyl-4-carboxamide hydrochloride]	0.32	8.4
NC[C@H]1CC[C@H](C(=O)N[C@@H](Cc2cccc(-c3cnc(N4CCOCC4)nc3)c2)C(=O)Nc2ccc(-c3nnc(Cl)[nH]3)cc2)CC1 [Example 92, N-alpha-{[trans-4-(Aminomethyl)cyclohexyl]carbonyl}-N-[4-(3-chloro-4H-1,2,4-triazol-5-yl)phenyl]-3-[2-(morpholin-4-yl)pyrimidin-5-yl]-L-phenylalaninamide hydrochloride]	0.37	3.6
Cc1ccc2[nH]ncc2c1-c1cccc(C[C@H](NC(=O)[C@H]2CC[C@H](CN)CC2)C(=O)Nc2ccc(-c3nnn[nH]3)cc2)c1 [Example 83, N-alpha-{[trans-4-(Aminomethyl)cyclohexyl]carbonyl}-3-(5-methyl-1H-indazol-4-yl)-N-[4-(1H-tetrazol-5-yl)phenyl]-L-phenylalaninamide hydrochloride]	0.17	1.3
CC(C)N1CCC(NC(=O)c2cccc(-c3cccc(C[C@H](NC(=O)[C@H]4CC[C@H](CN)CC4)C(=O)Nc4ccc(-c5nnn[nH]5)cc4)c3)c2)CC1 [Example 32, 3′-[(2S)-2-({[trans-4-(Aminomethyl)cyclohexyl]carbonyl}amino)-3-oxo-3-{[4-(1H-tetrazol-5-yl)phenyl]amino}propyl]-N-[1-(propan-2-yl)piperidin-4-yl]biphenyl-3-carboxamide hydrochloride]	0.18	6.8
